# How the values were obtained:
# ATP = test: Determination of cellular ATP; format: cell-based, mouse
# [1] = format: cell-based, mouse
# p53^−/− MEFs = format: cell-based, mouse
# bax^−/−bak^−/− MEFs = format: cell-based, mouse
# [2] = system: Mouse bone marrow derived macrophages; format: cell-based
compound,measurement,setting,value
O=C1NCCc2c(OCCCCN3CCCCC3)cccc21 [DPQ],prevention of MNNG-induced ATP depletion,ATP,could be prevented
same,prevention of MNNG-induced NAD depletion,[1],could be prevented
COc1cc([C@@H]2c3cc4c(cc3[C@@H](O[C@@H]3O[C@@H]5CO[C@@H](C)O[C@H]5[C@H](O)[C@H]3O)[C@H]3COC(=O)[C@H]23)OCO4)cc(OC)c1O [etoposide],cell death (cell survival by PI exclusion),p53^−/− MEFs,resistant
same,cell death (cell survival by PI exclusion),bax^−/−bak^−/− MEFs,resistant
CN[C@@H]1C[C@H]2O[C@@](C)([C@@H]1OC)n1c3ccccc3c3c4c(c5c6ccccc6n2c5c31)C(=O)NC4 [staurosporine],TNFα production by macrophages,[2],failed to do so
same,cell death (cell survival by PI exclusion),p53^−/− MEFs,induced cell death
same,cell death,"parp-1^−/− MEFs; parp-1^−/− cells, staurosporine, FIG. 3F",killed
same,cell death,bax^−/−bak^−/− MEFs,no cell death was observed
O=c1[nH]ccc2c(O)cccc12 [DHIQ],effect on MNNG-induced cell death rate,parp-1^−/− MEFs,did not affect the cell death rate
same,block of MNNG-induced cell death,bax^−/−bak^−/− MEFs,fully
